The record followed here is US20150140109A1, “DOCETAXEL-BASED PROLONGED-RELEASE CANCER TREATMENT DRUG” (OY FILANA LTD, priority 2012, published 2015).

This test has as its system acinic cell carcinoma of the glandula mammaria of the NZB mouse Ca 755. Put plainly: Antitumor activity in mice inoculated with Ca755 mammary adenocarcinoma (tumor growth kinetics, lifetime). In kind it is in vivo, C57B1/6 female mice. As for the experimental part: To investigate the antitumor activity of a new dosage form of docetaxel in the composition with PLGA 50/50 the acinic cell carcinoma of the glandula mammaria of the NZB mouse Ca 755 was chosen. As the comparison object free docetaxel substance was used. The experiments were carried out on C57B1/6 female mice with the body weight of 18-20 g.
The anti-tumor activity of the preparations under research was estimated on the basis of the comparative analysis of tumor growth kinetics and comparing the lifetime in test groups and control groups of animals.
The introduction of both the docetaxel-based prolonged-release drug and the free docetaxel was started 48 hours after tumor inoculation.

Consider `CC(=O)O[C@@]12CO[C@@H]1C[C@H](O)[C@@]1(C)C(=O)[C@H](O)C3=C(C)[C@@H](OC(=O)[C@H](O)[C@@H](NC(=O)OC(C)(C)C)c4ccccc4)C[C@@](O)([C@@H](OC(=O)c4ccccc4)[C@H]21)C3(C)C` [docetaxel substance, docetaxel], for which the “period for which tumor growth inhibition above 50% is retained” value (even for the dose of 20 mg/kg) was no more than 17 days. Also, under “introduction started 48 hours after tumor inoculation”, the “inhibiting effect upon the tumor growth” value is reported as “strong inhibiting effect”.
